“And” between values parts separate entries of the source, which are not always exact repeats. Equal entries are not always repeated. Structures can show the parent of a compound that is named as a salt.
Legend:
[1] = test system: β-lactamase producing bacteria; assay: Test Example 3: MIC of meropenem (MEPM) combined with test compound at fixed 4 μg/mL, broth microdilution, ratio to MEPM alone; format: cell-based; conditions: for MIC of MEPM in combination with a test compound: test compound at fixed 4 μg/mL, numerator of the cell; for MIC of MEPM alone: no test compound, denominator of the cell, comparator for the example, in µg/mL
Experimental: Test Example 3: Evaluation of Minimum Inhibitory Concentration (MIC) of MEPM Against β-Lactamase Producing Bacteria
To evaluate the β-lactamase inhibitory activity of test compounds, the effect of combination of a test compound and a β-lactam agent against β-lactamase producing bacteria was evaluated. Meropenem (MEPM) was used as a β-lactam antimicrobial agent. The minimum inhibitory concentration (MIC) of MEPM against β-lactamase producing bacteria when a test compound was added at a fixed concentration (4 μg/mL) was measured by broth microdilution method (common ratio: 2).

[2] = test system: β-lactamase producing bacteria; assay: Test Example 1: MIC of meropenem (MEPM) combined with test compound at fixed 4 μg/mL, broth microdilution; format: cell-based; conditions: relative to MEPM alone
Outline: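 Meropenem MIC against β-lactamase producing bacteria measured by broth microdilution (2-fold series) with test compound held at 4 μg/mL.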

[3] = K. pneumoniae ATCC BAA-2344 (KPC)
[4] = K. pneumoniae ATCC BAA-2524 (OXA-48)

| Compound | MIC of MEPM in combination with a test compound [1, 3] [µg/mL] | MIC of MEPM in combination with a test compound [1, 4] [µg/mL] | further results |
| --- | --- | --- | --- |
| Cl.Cl.NC(C(=O)N1CC(Oc2ccc3c(c2C(=O)O)OB(O)CC3)C1)c1c[nH]cn1 (stereo not shown) [Example 40, 7-({1-[2-amino-2-(1H-imidazol-4-yl)(2H)ethanoyl]azetidin-3-yl}oxy)-2-hydroxy-3,4-dihydro-2H-1,2-benzoxaborinine-8-carboxylic Acid Dihydrochloride] | 0.063 | 0.063 | – |
| 4,4-dihydroxy-8-({1-[3-(pyrrolidin-2-yl)propanoyl]azetidin-3-yl}oxy)-5-oxa-4-boranuidabicyclo[4.4.0]deca-l(6),7,9-triene-7-carboxylic acid disodium salt [Example 118] | ≤ 0.063 | ≤ 0.063 | – |
| O=C(O)c1c(OC2CN(C(=O)C[C@@H]3CCCN3)C2)ccc2c1O[B-](O)(O)CC2.O=C(O)c1c(OC2CN(C(=O)C[C@@H]3CCCN3)C2)ccc2c1O[B-](O)(O)CC2.[Na+].[Na+] [Example 127, 4,4-dihydroxy-8-[(1-{[(2S)-pyrrolidin-2-yl]acetyl}azetidin-3-yl)oxy]-5-oxa-4-boranuidabicyclo[4.4.0]deca-l(6),7,9-triene-7-carboxylic acid disodium salt] | ≤ 0.063 | ≤ 0.063 | – |
| C[C@@H](O)[C@H]1C(=O)N2C(C(=O)O)=C(S[C@@H]3CN[C@H](C(=O)N(C)C)C3)[C@H](C)[C@H]12 [MEPM, meropenem, reference compound] | – | – | MIC of MEPM alone ([1]; E. coli ATCC BAA-2340 (KPC)): 4 and 8; MIC of MEPM alone [1, 4]: 2 and 1 |
| O=C(O)c1c(OC2CN(C(=O)Cc3ccncc3)C2)ccc2c1O[B-](O)(O)CC2 [Example 16, 4,4-dihydroxy-8-({1-[(pyridin-4-yl)acetyl]azetidin-3-yl}oxy)-5-oxa-4-boranuidabicyclo[4.4.0]deca-l(6),7,9-triene-7-carboxylic acid disodium salt] | – | – | Decrease of MIC of MEPM in combination with a test compound, E. coli ATCC BAA-2340 (KPC) ([2]; E. coli ATCC BAA-2340 (KPC)): A (MIC of MEPM decreasing to less than 1/32 in combination with a test compound is indicated by A); Decrease of MIC of MEPM in combination with a test compound, K. pneumoniae ATCC BAA-2524 (OXA-48) [2, 4]: B (decreasing from 1/32 to 1/16 is indicated by B) |
